# ChEMBL document CHEMBL3612057, “Discovery of indolizines containing triazine moiety as new leads for the development of antitumoral agents targeting mitotic events” (2015)
# Activity calls are given as the source filed them. The calls are words filed in the database; no cut-off is given here.
# Columns and labels:
# [1] = test system: Malme-3M; test: Cytotoxicity against human MALME-3M cells assessed as growth inhibition at 10 uM after 24 hrs by SRB assay; format: functional; settings: read-out: GI
# [2] = test system: HCT-116; test: Cytotoxicity against human HCT116 cells assessed as growth inhibition at 10 uM after 24 hrs by SRB assay; format: functional
# [3] = test system: HOP-92; test: Cytotoxicity against human HOP92 cells after 48 hrs by SRB assay; format: functional; settings: HOP-92, 48 h
# [4] = test system: SK-MEL-28; test: Cytotoxicity against human SK-MEL-28 cells assessed as growth inhibition at 10 uM after 24 hrs by SRB assay; format: functional; settings: SK-MEL-28, 24 h, read-out: GI
# [5] = test system: RPMI-8226; test: Cytotoxicity against human RPMI8226 cells assessed as growth inhibition at 10 uM after 24 hrs by SRB assay; format: functional
# [6] = test system: SF-295; test: Cytotoxicity against human SF295 cells assessed as growth inhibition at 10 uM after 24 hrs by SRB assay; format: functional; settings: SF-295, 24 h, read-out: GI
# [7] = test system: 786-0; test: Cytotoxicity against human 786-0 cells after 48 hrs by SRB assay; format: functional; settings: 786-0, 48 h
# [8] = test system: A549; test: Cytotoxicity against human A549 cells assessed as growth inhibition at 10 uM after 24 hrs by SRB assay; format: functional; settings: A549, 24 h, read-out: GI
# [9] = test system: OVCAR-4; test: Cytotoxicity against human OVCAR4 cells assessed as growth inhibition at 10 uM after 24 hrs by SRB assay; format: functional; settings: OVCAR-4, 24 h, read-out: GI
# [10] = test system: K562; test: Cytotoxicity against human K562 cells assessed as growth inhibition at 10 uM after 24 hrs by SRB assay; format: functional
# [11] = test system: SR; test: Cytotoxicity against human SR cells assessed as growth inhibition at 10 uM after 24 hrs by SRB assay; format: functional
# [12] = test system: MCF7; test: Cytotoxicity against human MCF7 cells assessed as growth inhibition at 10 uM after 24 hrs by SRB assay; format: functional; settings: MCF7, 24 h, read-out: GI
# [13] = test system: T47D; test: Cytotoxicity against human T47D cells assessed as growth inhibition at 10 uM after 24 hrs by SRB assay; format: functional; settings: read-out: GI
# [14] = test system: UACC-62; test: Cytotoxicity against human UACC62 cells assessed as growth inhibition at 10 uM after 24 hrs by SRB assay; format: functional
# [15] = test system: NCI/ADR-RES; test: Cytotoxicity against human NCI/ADR-RES cells assessed as growth inhibition at 10 uM after 24 hrs by SRB assay; format: functional; settings: read-out: GI
# [16] = test system: U-251; test: Cytotoxicity against human U251 cells assessed as growth inhibition at 10 uM after 24 hrs by SRB assay; format: functional
# [17] = test system: OVCAR-3; test: Cytotoxicity against human OVCAR3 cells assessed as growth inhibition at 10 uM after 24 hrs by SRB assay; format: functional; settings: OVCAR-3, 24 h, read-out: GI
# [18] = test system: ACHN; test: Cytotoxicity against human ACHN cells assessed as growth inhibition at 10 uM after 24 hrs by SRB assay; format: functional; settings: read-out: GI
# [19] = test system: HL-60(TB); test: Cytotoxicity against human HL-60(TB) cells assessed as growth inhibition at 10 uM after 24 hrs by SRB assay; format: functional
# [20] = test system: UACC-257; test: Cytotoxicity against human UACC257 cells assessed as growth inhibition at 10 uM after 24 hrs by SRB assay; format: functional; settings: UACC-257, 24 h, read-out: GI
# [21] = test system: CAKI-1; test: Cytotoxicity against human CAKI-1 cells assessed as growth inhibition at 10 uM after 24 hrs by SRB assay; format: functional; settings: CAKI-1, 24 h, read-out: GI
# [22] = test system: CCRF-CEM; test: Cytotoxicity against human CCRF-CEM cells assessed as growth inhibition at 10 uM after 24 hrs by SRB assay; format: functional
# [23] = test system: NCI-H522; test: Cytotoxicity against human NCI-H522 cells assessed as growth inhibition at 10 uM after 24 hrs by SRB assay; format: functional
# [24] = test system: HOP-62; test: Cytotoxicity against human HOP62 cells after 48 hrs by SRB assay; format: functional; settings: HOP-62, 48 h
# [25] = test system: HOP-62; test: Cytotoxicity against human HOP62 cells assessed as growth inhibition at 10 uM after 24 hrs by SRB assay; format: functional
# [26] = test system: TK-10; test: Cytotoxicity against human TK10 cells assessed as growth inhibition at 10 uM after 24 hrs by SRB assay; format: functional
# [27] = test system: SNB-75; test: Cytotoxicity against human SNB75 cells assessed as growth inhibition at 10 uM after 24 hrs by SRB assay; format: functional; settings: SNB-75, 24 h, read-out: GI
# [28] = test system: NCI-H226; test: Cytotoxicity against human NCI-H226 cells assessed as growth inhibition at 10 uM after 24 hrs by SRB assay; format: functional; settings: NCI-H226, 24 h, read-out: GI
# [29] = test system: SNB-75; test: Cytotoxicity against human SNB75 cells after 48 hrs by SRB assay; format: functional; settings: SNB-75, 48 h
# [30] = test system: SF-539; test: Cytotoxicity against human SF539 cells assessed as growth inhibition at 10 uM after 24 hrs by SRB assay; format: functional
# [31] = species on record: Ovis aries; test: Inhibition of sheep tubulin polymerization at 100 uM by fluorescence assay
# [32] = test system: RXF 393; test: Cytotoxicity against human RXF393 cells assessed as growth inhibition at 10 uM after 24 hrs by SRB assay; format: functional; settings: RXF 393, 24 h, read-out: GI
# [33] = test system: NCI-H460; test: Cytotoxicity against human NCI-H460 cells assessed as growth inhibition at 10 uM after 24 hrs by SRB assay; format: functional; settings: NCI-H460, 24 h, read-out: GI
# [34] = test system: SK-MEL-5; test: Cytotoxicity against human SK-MEL-5 cells assessed as growth inhibition at 10 uM after 24 hrs by SRB assay; format: functional
# [35] = test system: OVCAR-8; test: Cytotoxicity against human OVCAR8 cells assessed as growth inhibition at 10 uM after 24 hrs by SRB assay; format: functional; settings: OVCAR-8, 24 h, read-out: GI
# [36] = test system: MDA-MB-231; test: Cytotoxicity against human MDA-MB-231 cells assessed as growth inhibition at 10 uM after 24 hrs by SRB assay; format: functional; settings: MDA-MB-231, 24 h, read-out: GI
# [37] = test system: 786-0; test: Cytotoxicity against human 786-0 cells assessed as growth inhibition at 10 uM after 24 hrs by SRB assay; format: functional; settings: 786-0, 24 h, read-out: GI
# [38] = test system: RXF 393; test: Cytotoxicity against human RXF393 cells after 48 hrs by SRB assay; format: functional; settings: RXF 393, 48 h
# [39] = test system: MDA-MB-435; test: Cytotoxicity against human MDA-MB-435 cells assessed as growth inhibition at 10 uM after 24 hrs by SRB assay; format: functional
# [40] = test system: SK-OV-3; test: Cytotoxicity against human SKOV3 cells assessed as growth inhibition at 10 uM after 24 hrs by SRB assay; format: functional
# [41] = Cytotoxicity against human Hs578T cells assessed as growth inhibition at 10 uM after 24 hrs by SRB assay; format: functional; settings: Hs-578T, read-out: GI
# [42] = test system: PC-3; test: Cytotoxicity against human PC3 cells assessed as growth inhibition at 10 uM after 24 hrs by SRB assay; format: functional; settings: PC-3, 24 h, read-out: GI
# [43] = test system: HOP-92; test: Cytotoxicity against human HOP92 cells assessed as growth inhibition at 10 uM after 24 hrs by SRB assay; format: functional
# [44] = test system: TK-10; test: Cytotoxicity against human TK10 cells after 48 hrs by SRB assay; format: functional; settings: TK-10, 48 h
# [45] = test system: MDA-MB-231; test: Cytotoxicity against human MDA-MB-231 cells after 48 hrs by SRB assay; format: functional; settings: MDA-MB-231, 48 h
# [46] = test system: SK-MEL-28; test: Cytotoxicity against human SK-MEL-28 cells after 48 hrs by SRB assay; format: functional; settings: SK-MEL-28, 48 h
# [47] = test system: DU-145; test: Cytotoxicity against human DU145 cells after 48 hrs by SRB assay; format: functional; settings: DU-145, 48 h
# [48] = test system: U-251; test: Cytotoxicity against human U251 cells after 48 hrs by SRB assay; format: functional; settings: U-251, 48 h
smiles,measurement,setting,value
COc1nc(OC)nc(-c2cc(C(=O)c3ccc(Br)cc3)n3ccc4ccccc4c23)n1,inhibition of growth at 10 µM,[1],67%
same,growth inhibition (GI),[2],inactive
same,GI50,[3],13.2 µM
same,inhibition of growth at 10 µM,[4],52%
same,growth inhibition (GI),[5],inactive
same,inhibition of growth at 10 µM,[6],76%
same,GI50,[7],4.06 µM
same,inhibition of growth at 10 µM,[8],55%
same,inhibition of growth at 10 µM,[9],33%
same,growth inhibition (GI),[10],inactive
same,growth inhibition (GI),[11],inactive
same,inhibition of growth at 10 µM,[12],60%
same,inhibition of growth at 10 µM,[13],38%
same,growth inhibition (GI),[14],inactive
same,inhibition of growth at 10 µM,[15],46%
same,growth inhibition (GI),[16],inactive
same,inhibition of growth at 10 µM,[17],51%
same,inhibition of growth at 10 µM,[18],29%
same,growth inhibition (GI),[19],inactive
same,inhibition of growth at 10 µM,[20],32%
same,inhibition of growth at 10 µM,[21],44%
same,growth inhibition (GI),[22],inactive
same,growth inhibition (GI),[23],inactive
same,GI50,[24],22.8 µM
same,growth inhibition (GI),[25],inactive
same,growth inhibition (GI),[26],inactive
same,inhibition of growth at 10 µM,[27],75%
same,inhibition of growth at 10 µM,[28],28%
same,GI50,[29],2.58 µM
same,growth inhibition (GI),[30],inactive
same,inhibition,[31],inactive
same,inhibition of growth at 10 µM,[32],81%
same,inhibition of growth at 10 µM,[33],71%
same,growth inhibition (GI),[34],inactive
same,inhibition of growth at 10 µM,[35],50%
same,inhibition of growth at 10 µM,[36],96%
same,inhibition of growth at 10 µM,[37],81%
same,GI50,[38],3.57 µM
same,growth inhibition (GI),[39],inactive
same,growth inhibition (GI),[40],inactive
same,inhibition of growth at 10 µM,[41],65%
same,inhibition of growth at 10 µM,[42],58%
same,growth inhibition (GI),[43],inactive
COc1nc(OC)nc(-c2cc(C(=O)c3ccc(Br)cc3)n3ccccc23)n1,inhibition of growth at 10 µM,[1],37%
same,inhibition of growth at 10 µM,"[2]; HCT-116, 24 h, read-out: GI",65%
same,GI50,[3],1.08 µM
same,inhibition of growth at 10 µM,[4],63%
same,inhibition of growth at 10 µM,"[5]; RPMI-8226, 24 h, read-out: GI",26%
same,inhibition of growth at 10 µM,[6],87%
same,GI50,[7],2.6 µM
same,GI50,[44],3.32 µM
same,inhibition of growth at 10 µM,[8],62%
same,inhibition of growth at 10 µM,[9],88%
same,inhibition of growth at 10 µM,"[10]; K562, 24 h, read-out: GI",22%
same,inhibition of growth at 10 µM,[11]; read-out: GI,36%
same,inhibition of growth at 10 µM,[12],18%
same,inhibition of growth at 10 µM,[13],52%
same,inhibition of growth at 10 µM,"[14]; UACC-62, 24 h, read-out: GI",30%
same,inhibition of growth at 10 µM,[15],50%
same,inhibition of growth at 10 µM,"[16]; U-251, 24 h, read-out: GI",61%
same,inhibition of growth at 10 µM,[17],44%
same,inhibition of growth at 10 µM,[18],70%
same,inhibition of growth at 10 µM,"[19]; HL-60, 24 h, read-out: GI",12%
same,inhibition of growth at 10 µM,[20],62%
same,inhibition of growth at 10 µM,[21],56%
same,growth inhibition (GI),[22],inactive
same,inhibition of growth at 10 µM,"[23]; NCI-H522, 24 h, read-out: GI",40%
same,GI50,[24],2.18 µM
same,inhibition of growth at 10 µM,"[25]; HOP-62, 24 h, read-out: GI",96%
same,GI50,[45],0.92 µM
same,inhibition of growth at 10 µM,"[26]; TK-10, 24 h, read-out: GI",78%
same,inhibition of growth at 10 µM,[27],-5%
same,inhibition of growth at 10 µM,[28],75%
same,GI50,[29],0.87 µM
same,inhibition of growth at 10 µM,"[30]; SF-539, 24 h, read-out: GI",76%
same,inhibition,[31],inactive
same,inhibition of growth at 10 µM,[32],75%
same,GI50,[46],83.8 µM
same,GI50,[47],29.1 µM
same,inhibition of growth at 10 µM,[33],70%
same,inhibition of growth at 10 µM,"[34]; SK-MEL-5, 24 h, read-out: GI",27%
same,inhibition of growth at 10 µM,[35],52%
same,inhibition of growth at 10 µM,[36],48%
same,inhibition of growth at 10 µM,[37],59%
same,GI50,[38],4.74 µM
same,inhibition of growth at 10 µM,"[39]; MDA-MB-435, 24 h, read-out: GI",45%
same,inhibition of growth at 10 µM,"[40]; SK-OV-3, 24 h, read-out: GI",-11%
same,inhibition of growth at 10 µM,[41],96%
same,inhibition of growth at 10 µM,[42],55%
same,GI50,[48],1.87 µM
same,inhibition of growth at 10 µM,"[43]; HOP-92, 24 h, read-out: GI",59%
